Test in all cases: growth of human tumour cells (NCI), 48 h
The test system of experiment [1] is MDA-N.
For experiment [2], the system named is IGROV-1.
For experiment [3], the system named is MDA-MB-435.
The test system of experiment [4] is SK-MEL-28.
The test system of experiment [5] is NCI/ADR-RES.
Experiment [6] relates to HCT-15.
The subject of experiment [7] is TK-10.
For experiment [8], the system named is SK-MEL-5.
In experiment [9] the test system is ACHN.
For experiment [10], the system named is OVCAR-5.
Experiment [11] has as its system SF-295.
The subject of experiment [12] is BT-549.
Experiment [13] relates to EKVX.
Experiment [14] deals with RXF 393.
Experiment [15] relates to Hs-578T.
Experiment [16] relates to M14.
Experiment [17] concerns HCC 2998.
Experiment [18] has as its system CCRF-CEM.
The test system of experiment [19] is HL-60.

The structures appear in SMILES notation.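 Where inhibition never reached the appropriate level, the endpoint shown equals the highest concentration tested. Otherwise, values were interpolated linearly from a five-concentration, 48-hour dose response in 96-well plates. The concentration for 50% growth inhibition is given as GI50.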 Active and inactive are the calls of the source. Rule as the data show it: active = GI50 up to about 1.1 µM and inactive = higher.

For the molecule `Clc1ccc(CN2CCCN(Cc3ccc(Cl)cc3)C2c2cc3ccccc3c3ccccc23)cc1`, the GI50 is 37.2 µM (inactive) in experiment [1]; > 100 µM (inactive) in experiment [2]; 30.2 µM (inactive) in experiment [3]; 22.8 µM (inactive) in experiment [4]; 65.8 µM (inactive) in [5]; 62.8 µM in [6]. Besides, the GI50 was 78.5 µM (inactive) in [7]; 17.8 µM (inactive) in experiment [8]; > 100 µM (inactive) in [9]; 36.9 µM (inactive) in experiment [10]; 52.2 µM (inactive) in experiment [11]; 38.3 µM (inactive) in experiment [12]. Besides, the GI50 is 39.1 µM (inactive) in experiment [13], 24.8 µM (inactive) in [14], 24.4 µM (inactive) in experiment [15] and 18.7 µM (inactive) in [16].

`N=C(N)SCc1cccc(-c2nc3ccccc3c(=O)o2)c1`: the GI50 in experiment [1], in experiment [2], in [3], in experiment [4], in experiment [17] and in experiment [5] was > 100 µM (inactive) in each case. Further, the GI50 in experiment [6] is greater than 100 µM; in [7], > 100 µM (inactive); in experiment [8], > 100 µM (inactive); in experiment [9], > 100 µM (inactive); in [10], > 100 µM (inactive); in [11], > 100 µM (inactive). The GI50 in experiment [12], in experiment [13], in [14], in [15] and in [16] was > 100 µM (inactive) throughout.

In the case of `COc1nc(N)c(NC2OC(CO)C(O)C2O)c(=O)[nH]1` (stereo not drawn), the GI50 in [1], in [18], in experiment [2], in experiment [3], in experiment [4] and in [17] was > 100 µM (inactive) in each case. Further, the GI50 is > 100 µM (inactive) in experiment [5]; greater than 100 µM in experiment [6]; > 100 µM (inactive) in experiment [7]; > 100 µM (inactive) in experiment [8]; > 100 µM (inactive) in experiment [9]; > 100 µM (inactive) in [10]. The GI50 in [11], in [12], in experiment [13], in [14], in experiment [15] and in experiment [16] was > 100 µM (inactive) in each case. In experiment [19], the GI50 was > 100 µM (inactive).

Take `CC1=NN(C(=O)CSc2nnc(SCC(=O)N3N=C(C)CC3(O)c3ccccc3)s2)C(O)(c2ccccc2)C1` (stereo not drawn): the GI50 was 39.6 µM (inactive) in experiment [1]; 18.7 µM (inactive) in experiment [18]; 25.1 µM (inactive) in experiment [2]; 51.3 µM (inactive) in experiment [3]; > 100 µM (inactive) in experiment [4]; > 100 µM (inactive) in experiment [17]. For the same molecule, the GI50 in experiment [5] was 27.9 µM (inactive); in [6] it was 33.2 µM; in experiment [7], 54.3 µM (inactive); in [8], 28.2 µM (inactive); in experiment [9] it was 34.8 µM (inactive); in experiment [10], 82.4 µM (inactive). Moreover, the GI50 was 42 µM (inactive) in [11]; 15.5 µM (inactive) in [12]; 27 µM (inactive) in [13]; 24.9 µM (inactive) in experiment [14]; 36.3 µM (inactive) in experiment [15]; 16.1 µM (inactive) in experiment [16].

`CCOC(=O)C12C(=O)CCN1CCc1ccccc1C2C` (stereo not drawn): the GI50 in experiment [1] was > 100 µM (inactive); in [2], > 100 µM (inactive); in [3] it was > 100 µM (inactive); in [4] it was > 100 µM (inactive); in experiment [5], > 100 µM (inactive); in experiment [6], greater than 100 µM. For the same molecule, the GI50 in experiment [7], in experiment [8], in [9], in experiment [10], in experiment [11] and in experiment [12] was > 100 µM (inactive) each time. Also, the GI50 in experiment [13], in experiment [14], in experiment [15], in experiment [16] and in [19] was > 100 µM (inactive) in each case.

On to `COc1ccccc1N1C(=O)CSC1c1c[nH]c2ccccc12` (stereo not drawn), for which the GI50 in experiment [1] is > 100 µM (inactive); in experiment [2] it was > 100 µM (inactive); in experiment [3], > 100 µM (inactive); in experiment [4], 66.7 µM (inactive); in experiment [17] it was > 100 µM (inactive); in [5] it was > 100 µM (inactive). Further, the GI50 in [6] is greater than 100 µM; in experiment [7] it was > 100 µM (inactive); in experiment [8], > 100 µM (inactive); in [9], > 100 µM (inactive); in [10] it was > 100 µM (inactive); in [11], > 100 µM (inactive). The GI50 in experiment [12], in experiment [13], in experiment [14], in [15], in experiment [16] and in experiment [19] was > 100 µM (inactive) each time.

Turning to `Cc1nc2sc3ccccc3n2c(=O)c1/N=N/c1ccc(Br)cc1`, the GI50 was > 100 µM (inactive) in [1]; 77.8 µM (inactive) in experiment [18]; > 100 µM (inactive) in [2]; > 100 µM (inactive) in experiment [3]; > 100 µM (inactive) in experiment [4]; > 100 µM (inactive) in [5]. The GI50 in experiment [6] is greater than 100 µM; in experiment [7], > 100 µM (inactive); in experiment [8] it was > 100 µM (inactive); in [9] it was > 100 µM (inactive); in experiment [10], > 100 µM (inactive); in [11], > 100 µM (inactive). In addition, the GI50 was > 100 µM (inactive) in experiment [12]; 57.1 µM (inactive) in experiment [13]; > 100 µM (inactive) in experiment [14]; 67.5 µM (inactive) in experiment [15]; > 100 µM (inactive) in [16]; 81.8 µM (inactive) in experiment [19].

On to `COc1ccc2c3c1OC1c4[nH]c5ccccc5c4CC4(O)C(C2)N(C)CCC314` (stereo not drawn), for which the GI50 is 17.3 µM (inactive) in [1]; 24.2 µM (inactive) in experiment [18]; 64.1 µM (inactive) in [2]; 18.1 µM (inactive) in experiment [3]; 17.4 µM (inactive) in experiment [4]; 16.4 µM (inactive) in [17]. Also, the GI50 is 63.4 µM (inactive) in experiment [5]; 46.6 µM in [6]; 22.9 µM (inactive) in experiment [7]; 15.2 µM (inactive) in experiment [8]; 20.6 µM (inactive) in experiment [9]; 71.6 µM (inactive) in experiment [10]. Moreover, the GI50 was 82.4 µM (inactive) in [11]; 30.8 µM (inactive) in experiment [12]; 51.9 µM (inactive) in experiment [13]; 20 µM (inactive) in experiment [14]; 21.3 µM (inactive) in experiment [15]; 17.1 µM (inactive) in experiment [16].

Take `CC(=O)O[C@@H]1C[C@]2(C(=O)c3ccccc3)C(=O)C(=O)S[C@]12c1ccccc1`: the GI50 is 30 µM (inactive) in experiment [1]; 45.4 µM (inactive) in experiment [2]; 29.2 µM (inactive) in experiment [3]; 58.3 µM (inactive) in experiment [4]; 26.7 µM (inactive) in [17]; 41.6 µM (inactive) in [5]. In addition, the GI50 is 32.9 µM in experiment [6]; 55.7 µM (inactive) in experiment [7]; 32.4 µM (inactive) in experiment [8]; 62.2 µM (inactive) in [9]; > 100 µM (inactive) in experiment [10]; 65.9 µM (inactive) in [11]. The GI50 in experiment [12] is 44.1 µM (inactive); in experiment [13], 52.2 µM (inactive); in experiment [14] it was 25.9 µM (inactive); in experiment [15] it was 39.5 µM (inactive); in experiment [16], 38.4 µM (inactive); in experiment [19], 0.225 µM (active).

Take `O=S(=O)(O)c1cc(Nc2ccnc3ccccc23)c2c(S(=O)(=O)O)cc(S(=O)(=O)O)cc2c1`: the GI50 in [1], in experiment [18], in [2], in [3], in experiment [4] and in experiment [17] was > 100 µM (inactive) each time. The GI50 in [5] was > 100 µM (inactive); in [6], greater than 100 µM; in experiment [7], > 100 µM (inactive); in experiment [8], > 100 µM (inactive); in experiment [10], > 100 µM (inactive); in experiment [12], > 100 µM (inactive). The GI50 in [13], in experiment [14], in experiment [15] and in experiment [16] was > 100 µM (inactive) each time.

Turning to `COc1ccc(-c2oc3c(OC)c(OC)c(OC)c(OC)c3c(=O)c2OC)cc1OC` [3,5,6,7,8,3',4'-HEPTAMETHOXYFLAVONE], the GI50 in experiment [1] was 27.6 µM (inactive); in experiment [18], 25.6 µM (inactive); in experiment [2], 30.3 µM (inactive); in experiment [3], 15.8 µM (inactive); in [4], 66.7 µM (inactive); in experiment [17], 63.8 µM (inactive). Further, the GI50 in experiment [5] is 20.3 µM (inactive); in [6], 35.9 µM; in experiment [7] it was 61 µM (inactive); in experiment [8], 19.3 µM (inactive); in [9], 33.5 µM (inactive); in experiment [10], > 100 µM (inactive). Further, the GI50 was 32 µM (inactive) in experiment [11]; 50.7 µM (inactive) in experiment [12]; 55.7 µM (inactive) in experiment [13]; 20.9 µM (inactive) in experiment [15]; 41.4 µM (inactive) in experiment [16]; 14.1 µM (inactive) in experiment [19].

The record behind these values is ChEMBL document CHEMBL1201862, “PubChem BioAssay data set” (2004).
